These results are taken from PMC11053681, “Gold(I) and Silver(I) Complexes Containing Hybrid Sulfonamide/Thiourea Ligands as Potential Leishmanicidal Agents” (Pharmaceutics, 2024).

Several values for one entry are separate records, joined by “and”; a condition that tells them apart may be missing. Equal entries are not always repeated. Entries after “also recorded” stand apart in the source; their conditions may differ. Where two headings read alike, the source gives them in different places.

The target of one data set is LbOYE (Leishmania braziliensis, UniProt A4H6Z3). As to the kind of experiment: Suppression of intrinsic tryptophan fluorescence of LbOYE. The data set is classed as binding. The settings on record: for Affinity of LbOYE for the compound (fluorescence quenching), in words: Hill fit for Kd not possible for these ligands. The source says: The recombinant LbOYE protein was produced using the methodology previously described. Briefly, the protein was expressed in strains of bacterial Escherichia coli BL21(DE3) through induction by IPTG using the pET28a:LbOYE vector. The enzyme was purified through a chromatography step of capture by nickel affinity, as the pET28a vector allows the expression of a polyhistidine fusion peptide, located at the N-terminal end of the protein. After affinity purification, the polyhistidine tail was excised by “overnight” incubation with thrombin, and the second purification step was performed using size exclusion chromatography. Purification was evaluated by SDS-PAGE and protein concentration was estimated by spectrophotometry.
Sequence of LbOYE (A4H6Z3 entry or part of it): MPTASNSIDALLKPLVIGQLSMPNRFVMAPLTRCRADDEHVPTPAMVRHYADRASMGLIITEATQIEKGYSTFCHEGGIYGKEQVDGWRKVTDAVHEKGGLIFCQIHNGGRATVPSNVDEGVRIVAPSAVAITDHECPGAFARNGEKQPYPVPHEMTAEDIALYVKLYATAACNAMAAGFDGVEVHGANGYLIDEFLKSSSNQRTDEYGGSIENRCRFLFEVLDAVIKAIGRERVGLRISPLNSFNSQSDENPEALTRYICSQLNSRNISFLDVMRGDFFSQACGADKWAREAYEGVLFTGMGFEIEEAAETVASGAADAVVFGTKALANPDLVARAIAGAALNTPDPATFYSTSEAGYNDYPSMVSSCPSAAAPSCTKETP
The emission spectra of the intrinsic fluorescence of the tryptophan were recorded using a Shimadzu F-4500 spectrofluorometer in the range of 310–420 nm, with opening of slits of excitation and emission at 5.0 nm and λex = 295 nm. Interaction analyzes between LbOYE and ligands were performed at λmax = 333 nm.
(§1) The compounds were solubilized in DMSO and then we made successive dilutions in a Tris-HCl 25 mmol L^−1 buffer, pH 8.0, containing 100 mmol L^−1 of NaCl. For all experiments, the final concentration of DMSO was kept constant and equal to 2.5%. Solutions with increasing concentrations of ligand and constant concentration of LbOYE (1 µmol L^−1) were prepared, which were kept at 25 °C for a period of 1h before acquisition of fluorescence emission spectra.
The results were obtained from the fluorescence emission spectra of the intrinsic tryptophan probe in the presence of the compounds HL1^Ch, HL3^FPh, HL5^NO2Ph, [Au(HL1^Ch)2]Cl and [Ag(HL3^FPh)2]NO3. The bonding parameters were determined by the Hill plot, obtaining the dissociation constant (Kd) through the non-linear adjustment of the saturation curve to the experimental data. The double-log plot was used to determine the bonding constant and the number of bonding sites (n). It also allows the calculation of the bonding constant (Kb) and Kd from 1/Kb.
Equation (1)—Hill’s equation:(1) F0−F/F0=[L]/L+Kd
Equation (2)—Double-log:(2) logF0−F/F0=nlogKb−nlog1/L−(F0−F)[P0]/F
Equation (3)—Equation of Stern–Volmer:(3) F0/F=1+KSV[L]
The study of fluorescence quenching can be affected when the ligand has absorption bands that coincide with excitation and emission wavelengths of fluorescence. This interference is called the internal filter effect, which can be minimized using the procedure described by Equation (4). Fobs and Fcor are the fluorescence intensities at 333 nm measured and corrected, respectively; l represents the optical step where the absorption and emission of light occurs and C0 is the concentration of the ligand.
For the correction of the internal filter effect, were used the molar absorptivity coefficient values in the excitation (295 nm) and emission (333 nm) lengths, [λ/ε (L mol^−1 cm^−1)]; HL1^Ch (εex = 373 and εem = 117), HL3^FPh (εex = 1191 and εem = 57), HL5^NO2Ph (εex = 6162 and εem = 9124), Au1 (εex = 7045 and εem = 4008) and Ag3 (εex = 9431 and εem = 3281).

Data set [1] in a line: Solubility in buffer for the fluorescence experiments. In kind it is physicochemical. The settings on record: Tris-HCl buffer. How it is done:
as §1
After the synthesis and structural characterization of the compounds, studies of interaction of the compounds and the recombinant LbOYE were carried out by fluorescence measurements.

Data set [2] is described as follows: Cytotoxicity assay on Vero cells (resazurin). The settings on record: African green monkey, Vero cells (ATCC CRL-1587), 24 h treatment. The data set is classed as cell-based, African green monkey. The procedure: For the experiment, Vero cells (ATCC CRL-1587) were used in Roswell Parl Memorial Institute (RPMI) medium with 10% fetal bovine serum (FBS) (RPMI 10%) and 20 μg/mL of Gentamicin. They were cultivated in culture bottles of […] and kept in an oven at 37 °C with 5% carbon dioxide (CO2). When picked or used on the day of the experiment, the cells were detached from the wall of the bottles with saline and 1X trypsin/EDTA. To find out how many cells there were in the bottle, it was diluted in Turkey liquid and then we proceeded with the counting in the Neubauer Chamber to calculate the desired concentrations. The Vero cells were plated at […] cells per well, in 96-well plates, and kept in an incubator with 5% CO2 at 37 °C for 24 h. Then, the compounds were added in triplicate, starting at a concentration of 500 µM, with serial dilution being performed up to a concentration of 3.9 µM [54]. The treatment was carried out for 24 h, and, after adding 5 µL of resazurin, the fluorescence was read using a spectrofluorometer (EnSpire Perkin-Elmer, Waltham, MA, USA).

The subject of data set [3] is RAW macrophages infected with Leishmania infantum. As to the kind of experiment: Infectivity test / infection rate in RAW macrophages. The data set is classed as cell-based. The conditions noted are these: three concentrations (below IC50, IC50, above IC50), 24 h treatment. The procedure:
For the infection of RAW macrophages adhered to the plates, we used parasites in the promastigote form of Leishmania infantum, in the stationary phase, in a ratio of 10:1 (promastigotes/macrophages).
Macrophages were plated in the amount of 5 × 10^4 cells per well, in 96-well plates, which were kept in a CO2 oven at 37 °C for 24 h. The parasites were plated at a concentration of 10:1. The plates were kept in a CO2 oven for 12 h until the parasites infected the cells. […] Plates were fixed with paraformol for further evaluation. Plaques were evaluated by counting parasites within 200 cells under the EVOS Cell Imaging System (Thermo Scientific, Waltham, MA, USA) microscope by staining with propidium iodide.
In view of the data obtained, the six most promising compounds (HL1^Ch, HL2^Ph, Ag3, Ag4, Ag6 and Au2) were selected for carrying out the infection rate test against the L. infantum parasite. […] This test was performed at four stages. The first step determined the percentage of the amount in 200 infected macrophages per parasite, the second determined the percentage of parasites that infects 100 cells/macrophages, the third determined the average percentage of parasites that infects 200 cells/macrophages and, finally, the fourth step indicated the infection rate, that is, the result of the amount of Leishmania per macrophage (obtained from the third step) multiplied by the percentage of infected macrophages. Figure 5 presents the graphs of the infection rates, while the other graphs can be found in Figure S7.4.

A further data set relates to Leishmania infantum. As to the kind of experiment: Leishmanicidal activity against promastigotes (resazurin). The settings on record: for IC50: Leishmania infantum, promastigote form, 24 h treatment, resazurin, read-out: IC50 L. infantum; for SI L. infantum: selectivity index = CC50 (Vero) / IC50 (L. infantum promastigotes). The data set is classed as cell-based. How it is done: (§2) The Leishmania infantum and Leishmania braziliensis strains were maintained in Schneider medium supplemented with 20% of SFB (Schneider 20%), cultivated in […] bottles and stored at 28 °C in a BOD oven. For the assays, parasites at the 5th day stationary growth phase were used.
(§3) The promastigotes metacyclic form of Leishmania infantum and Leishmania braziliensis were first filtered with an insulin syringe to break up rosettes and, then, were isolated from the culture in the stationary phase by centrifugation of 400× g for 4 min at a temperature of 4 °C [53]. The supernatant was subjected to a new centrifugation, heavier, of 2000× g for 30 min, also at 4 °C. The supernatant was discarded and the cell pallet formed from this centrifugation was resuspended in 10 mL of 10% Schneider medium. The process ensured the removal of cellular debris and dead parasites, as well as possible crystals from the culture medium, so that the quality of the experiment was guaranteed. Then, the promastigotes were diluted to 1:10 in paraformaldehyde (PFA) for counting in a Neubauer Chamber, with the concentrations adjusted for each experiment.
(§4) An amount of 1 × 10^7 parasites per well was used. The parasites were plated in 96-well plates. Then, the compounds were added in triplicate, starting at a concentration of 500 µM, with serial dilutions being performed up to a concentration of 3.9 µM [53]. The treatment was carried out for 24 h and, after adding 5 µL of resazurin, the fluorescence was read using a Enspire model spectrofluorometer (Perkin-Elmer, Waltham, MA, USA).

The test system of another data set is Leishmania braziliensis. The description is as above. The settings on record: for IC50: Leishmania braziliensis, promastigote form, 24 h treatment, resazurin, read-out: IC50 L. braziliensis; for SI L. braziliensis: selectivity index = CC50 (Vero) / IC50 (L. braziliensis promastigotes). In kind it is cell-based. The procedure: as §2, §3, §4
A general note: Alamar Blue is a resazurin reagent that responds to reducing activity.

A further data set relates to L. infantum. Also noted: method as in PMID 21833767, PMID 22926569. The settings on record: conditions and methods vary; read-out: Antileishmanial activity of other compounds; cited from earlier work.

One may read the CC50 as the concentration that lowers cell viability or growth by half. A lower CC50 goes with harm at low concentration. For `Cc1ccc(S(=O)(=O)NNC(=S)NC2CCCCC2)cc1` [HL1^Ch], on LbOYE, the “Affinity of LbOYE for the compound (fluorescence quenching), in words” value was “lower affinity”. Besides, in data set [1], the “Solubility in buffer at the concentrations for the fluorescence experiments, in words” value (“Solubility in buffer” for short) is recorded as “passed this stage”. The same molecule registered a CC50 at 24 h in data set [2] of 293 µM. Besides, the “Infection rate of L. infantum in macrophages, in words” value in data set [3] was “considerably lowered the infection rate of the parasite even at a concentration below its IC50”. In addition, in the data set on Leishmania infantum, the IC50 was 11 ± 0.306 µM; the “SI L. infantum” value is 26.6 and 26.64. In the data set with Leishmania braziliensis, the IC50 was found to be 128.9 ± 0.051 µM and the “SI L. braziliensis” value was 2.27.
With `Cc1ccc(S(=O)(=O)NNC(=S)Nc2ccccc2)cc1` [HL2^Ph], the CC50 at 24 h in data set [2] came to 268 µM. In data set [3], the “Infection rate of L. infantum in macrophages, in words” value is given as “the infection index was not relevant for a concentration below its IC50”. In the data set on Leishmania infantum, the IC50 came to 48.39 ± 0.189 µM; the “SI L. infantum” value is 5.5 and 5.54. In the data set with Leishmania braziliensis, the IC50 worked out at 273.5 ± 0.018 µM and the “SI L. braziliensis” value worked out at 0.98.
Consider `Cc1ccc(S(=O)(=O)NNC(=S)Nc2ccc(F)cc2)cc1` [HL3^FPh, N-(4-fluorophenyl)-2-tosylhydrazinocarbothioamide], for which the “Affinity of LbOYE for the compound (fluorescence quenching), in words” value at LbOYE was “lower affinity; also recorded: low affinity”. For the same molecule, the “Solubility in buffer” value in data set [1] is given as “passed this stage”. For the same molecule, the midpoint of cytotoxicity in data set [2], the CC50 at 24 h, lay at 292 µM. Besides, in the data set with Leishmania infantum, the IC50 worked out at 201.2 ± 0.052 µM and the “SI L. infantum” value is 1.450. Besides, in the data set with Leishmania braziliensis, the IC50 stood at 204.5 ± 0.018 µM and the “SI L. braziliensis” value was 1.43.
In general, Kd refers to a measure of binding affinity in units of concentration. Regarding `Cc1ccc(S(=O)(=O)NNC(=S)Nc2ccc([N+](=O)[O-])cc2)cc1` [HL5^NO2Ph, N-(4-nitrophenyl)-2-tosylhydrazinocarbothioamide], the Kd at LbOYE (Hill plot (n = 1), Equation (1), 25 °C, Tris-HCl pH 8.0, 2.5% DMSO, read-out: Kd * (Hill plot)) was determined as 35 ± 2 µM. The “Ksv *** (Stern–Volmer constant)” value at LbOYE (Stern–Volmer, Equation (3), 25 °C) is given as 6.5 ± 0.4 × 10^4. Further, the Kd on LbOYE (double log, Equation (2), Kd = 1/Kb, 25 °C, read-out: Kd ** (double log) (converted)) was 19 ± 1 µM. Further, the “n ** (number of bonding sites)” value on LbOYE (double log, Equation (2), 25 °C) is 1.5 ± 0.1. Also, the “Solubility in buffer” value in data set [1] was “passed this stage”. The molecule also returned a CC50 at 24 h in data set [2] of 26.6 µM. Also, in the data set with Leishmania infantum, the IC50 amounted to 286.9 ± 0.075 µM and the “SI L. infantum” value was found to be 0.09. Further, in the data set on Leishmania braziliensis, the IC50 worked out at 19.02 ± 0.012 µM and the “SI L. braziliensis” value stood at 1.40.
As for `CCP(CC)CC.[Au+].[Cl-]` [[AuCl(PEt3)]], the IC50 with L. infantum is 16.6 ± 1.03 µM.
For the molecule `CC(=O)OC[C@H]1O[C@@H]([S-])[C@H](OC(C)=O)[C@@H](OC(C)=O)[C@@H]1OC(C)=O.CCP(CC)CC.[Au+]` [auranofin], in the data set with L. infantum, the IC50 is 9.68 ± 1.02 µM.
Consider `CCCCCCCCCCCCCCCCOP(=O)([O-])OCC[N+](C)(C)C` [miltefosine], for which the IC50 in the data set with L. infantum was 14.4 ± 1.1 µM.
Turning to `COc1cc(NC(C)CCCN)c2ncccc2c1` (centres unmarked) [primaquine], the IC50 in the data set with L. infantum is 26.5 ± 1.2 µM.
